The assay has as its target T1, m-Calpin (Rattus norvegicus, UniProt Q07009).
T1 construct: m-Calpin was purified from brains of rats; from tissue; host or cells: rat brain
T1 sequence (Q07009 1-700): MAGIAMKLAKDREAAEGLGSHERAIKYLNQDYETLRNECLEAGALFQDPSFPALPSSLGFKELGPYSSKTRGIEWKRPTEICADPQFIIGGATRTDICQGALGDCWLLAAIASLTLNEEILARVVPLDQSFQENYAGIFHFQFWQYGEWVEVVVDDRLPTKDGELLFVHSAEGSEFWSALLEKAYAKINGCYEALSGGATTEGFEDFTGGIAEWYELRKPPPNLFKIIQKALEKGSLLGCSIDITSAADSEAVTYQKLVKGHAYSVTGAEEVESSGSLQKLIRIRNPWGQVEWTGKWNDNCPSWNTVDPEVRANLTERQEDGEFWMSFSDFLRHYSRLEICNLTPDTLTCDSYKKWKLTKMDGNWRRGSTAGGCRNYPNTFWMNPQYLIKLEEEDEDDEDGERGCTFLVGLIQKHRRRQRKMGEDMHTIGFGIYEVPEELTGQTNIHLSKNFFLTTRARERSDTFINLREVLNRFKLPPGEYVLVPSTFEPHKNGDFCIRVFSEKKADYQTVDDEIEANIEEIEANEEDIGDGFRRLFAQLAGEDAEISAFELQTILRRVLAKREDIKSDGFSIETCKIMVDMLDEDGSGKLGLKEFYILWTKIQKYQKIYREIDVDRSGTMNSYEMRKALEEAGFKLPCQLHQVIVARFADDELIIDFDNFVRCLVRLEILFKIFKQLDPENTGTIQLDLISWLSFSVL
T1 sequence (Q64537 1-270 partner): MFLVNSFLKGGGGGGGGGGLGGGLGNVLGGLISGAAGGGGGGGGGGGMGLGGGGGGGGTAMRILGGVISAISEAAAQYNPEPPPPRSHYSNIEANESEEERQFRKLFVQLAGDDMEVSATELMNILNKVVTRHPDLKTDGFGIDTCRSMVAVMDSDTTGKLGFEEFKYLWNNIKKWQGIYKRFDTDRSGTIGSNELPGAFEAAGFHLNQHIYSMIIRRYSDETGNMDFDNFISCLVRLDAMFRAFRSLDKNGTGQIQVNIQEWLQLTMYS
Nature of the assay: Measurement of calpain inhibitory activity. The class given is biochemical. Particulars: m-calpain purified from brains of rats. The method, then:
Measurement of calpain inhibitory activity
For comparison, inhibitory activity of leupeptin (N-terminus is in the form of amide) and calpeptin (N-terminus is in the form of carbamate) was also measured.
For orientation: IC50 means the point on the concentration scale where inhibition reaches its midpoint. For `CCCC[C@@H](C=O)NC(=O)[C@H](CC(C)C)NC(=O)OCc1ccccc1` [Calpeptin], the IC50 was 46 nM.
As for `CC(C)C[C@H](NS(=O)(=O)c1ccccc1)C(=O)N[C@H](C=O)C(C)C` [Example 1, N-phenylsulfonyl-L-leucyl-L-valinal], 11 nM corresponded to half-maximal inhibition (IC50).
Next, `CC(C)C[C@H](NS(=O)(=O)c1cccnc1)C(=O)N[C@H](C=O)C(C)C` [Example 2, N-3-pyridylsulfonyl-L-leucyl-L-valinal]: 6.5 nM; `CC(=O)N[C@@H](CC(C)C)C(=O)N[C@@H](CC(C)C)C(=O)N[C@H](C=O)CCCNC(=N)N` [Leupeptin]: 360 nM.
